In patent US4448717A, “Pharmacologically active peptides” (Eli Lilly and Company, priority 1982, dated 1984):

Assays:
mouse (Harlan ND4) = assay: mouse hot plate test (mouse jump); type: in vivo; conditions: subcutaneous injection, 15 minutes after administration, hot plate 55° C., dose producing analgesia in 50% of mice
Procedure: In this test, an upright acrylic cylinder comprising, as its base, a hot plate surface which is maintained at 55° C. is used. A mouse (Harlan ND4) is given, by subcutaneous injection, a predetermined amount of test compound dissolved or suspended in a suitable carrier, and, 15 minutes after administration of the test compound, the mouse is placed on the hot plate surface. The latency in seconds until the mouse jumps from the hot plate surface is measured. […] This must occur in a dose range which produces no motor incoordination or incapacitation. The following Table records ED50 results obtained from this test. By the term "ED50 " is meant that dose which produces analgesia in 50% of the mice tested. Analgesia is defined as a response latency in the presence of test compound that is equal to or greater than the control response latency plus two standard deviations. The percent analgesia data are converted to probits, and the ED50 is calculated by regression analysis of the dose-response data. Each dose response curve must have at least four points, and each point is determined using data from a minimum of ten treated mice and ten control mice.

enkephalin (δ) receptor = target: T1, enkephalin (δ) receptor (Mus musculus, UniProt P32300); assay: mouse vas deferens assay; type: cell-based; conditions: depression of 50% of the electrically evoked contraction, field stimulation 0.15 Hz, 37° C.
T1 construct: from tissue; host or cells: mouse vas deferens (Harlan ND4 mice)
Procedure: In the mouse vas deferens test, single mouse vas deferens from mature mice (Harlan ND4, 30-40 g.) are suspended in 3 ml. of modified Kreb's solution aerated with 95% O2 -5% CO2 and maintained at 37° C. The twitch induced by field stimulation (0.15 Hz, 1 msec., 40V) is recorded on a polygraph via an isometric transducer. The test compound is added to the bath in 20 to 30 μl. aliquots. A dose-response curve is constructed by cumulative addition of appropriate amounts of the compound to the bath. Comparison of relative agonist potency at the δ receptor is made on the basis of IC50 values (concentration causing depression of 50% of the electrically evoked contraction).
The Table following also provides results for compounds of this invention when tested in the mouse vas deferens assay.

mice = conditions: cited from earlier work

T1 sequence (P32300 whole entry): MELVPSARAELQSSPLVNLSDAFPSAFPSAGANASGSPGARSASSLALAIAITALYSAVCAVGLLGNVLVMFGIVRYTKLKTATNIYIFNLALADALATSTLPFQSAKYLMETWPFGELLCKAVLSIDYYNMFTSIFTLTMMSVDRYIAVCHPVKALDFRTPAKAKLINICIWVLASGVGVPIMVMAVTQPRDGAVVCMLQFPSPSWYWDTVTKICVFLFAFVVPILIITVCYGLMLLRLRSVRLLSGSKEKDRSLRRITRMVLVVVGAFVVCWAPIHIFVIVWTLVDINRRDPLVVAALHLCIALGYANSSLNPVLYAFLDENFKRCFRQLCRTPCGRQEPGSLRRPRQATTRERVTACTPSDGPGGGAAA

In the case of `CC(=O)C(Cc1ccccc1)NC(=O)CNC(=O)[C@@H](C)NC(=O)[C@@H](N)Cc1ccc(O)cc1` (stereo partly drawn) [Example 1, L-Tyrosyl-D-alanyl-N-(2-oxo-1-benzylpropyl)glycinamide], the “Mouse Jump ED50” value (mouse (Harlan ND4)) is reported as 3.2 mg/kg and the IC50 (enkephalin (δ) receptor) is reported as 0.49 nM.
With `CCN(C(=O)CNC(=O)[C@@H](C)NC(=O)[C@@H](N)Cc1ccc(O)cc1)[C@@H](Cc1ccccc1)C(C)=O` [Example 2, L-Tyrosyl-D-alanyl-N-ethyl-N-(2-oxo-1-benzylpropyl)glycinamide] the “Mouse Jump ED50” value (mouse (Harlan ND4)) was 0.006 mg/kg and the IC50 (enkephalin (δ) receptor) was 0.71 nM.
For “H-Tyr-Gly-Gly-Phe-Met-OH [methionine enkephalin]”, the “analgesic activity when administered parenterally” value (mice) is given as “practically devoid of any useful analgesic activity”.
